Read-outs that look alike come from different tables or passages of the source. Blank lines part the entries; values can stand above or below the compound they belong to.
Columns and labels:
[1] = format: physicochemical
[2] = for AUC (Mean) / Dissolution Rate (Mean): 150 mg in 250 mL (0.60 mg/mL API equivalent), 37° C.
Procedure: Microdissolution Microdissolution experiments were conducted in a pIon μDiss Profiler microdissolution instrument (pION μDiss Profiler) with a fiber optic UV monitoring system, as follows: Probes: 2.5 mm probes (5 mm path length) Volume: 15 ml Stirring: 150 rpm Temperature: 37° C. […] The target doses were 150 mg in 250 mL (0.60 mg/mL API equivalent) in FaSSIF (pH 6.5) and FeSSIF (pH 5).

[3] = Solid state stability of Compound 1 free base Form 4; format: physicochemical
Excerpt: The results of those experiments are in the table, below.

[4] = format: physicochemical; remark: listed apart in the source
Excerpt: There was no evidence of form change, dehydration, or amorphous formation after 8 weeks. There was no change in TGA at 8 weeks in all samples.

[5] = pH solubility of Compound 1 MSA Salt Form 1; format: physicochemical; details: 22 °C, aqueous buffer, thermodynamic from solid; from pH solubility profile of MSA Salt Form 1; read-out: Solubility for the free-base
Procedure: Measurements were taken using an Orion ATI Model 370 pH meter. […] To each vial was added 5 mL of various aqueous acidic and basic solutions. Each vial was stoppered and vortexed and sonicated to mix well. The pH of each sample was recorded. […] After 24 hours of stirring, the pH of each sample (as a suspension) was recorded. Suspensions were filtered with 0.2 micron Acrodisc syringe filters. The clear filtrates were collected and vortexed to mix well pH of each filtrated was recorded. pH of suspension and filtrate were nearly identical. A 1.0 mL aliquot of each of the filtrates 25-fold using 50% acetonitrile/50% Milli-Q water, q.w. each flask to 25 mL. […] Samples were assayed using the following HPLC method: Column: […] Mobile phase Solvent A: Water w/0.05% TFA • Solvent B: Acetonitrile w/0.05% TFA […] Column temperature: Ambient RT Detector Wavelength: 250 nm […] Working Concentration: […] Added 20 mL of 100% acetonitrile to the vial. Stoppered, vortexed, and sonicated the vial. […] Transferred the suspension to a 250 mL glass volumetric flask, and washed out the glass vial with 4×20 mL 50% acetonitrile/50% Milli-Q water, transferring each wash into the volumetric flask. All solids dissolved. Q.S. the volumetric flask to 250 mL final volume using 50% acetonitrile/50% Milli Q water, shake to give standard solution at 101.5 mcg/mL.

[6] = 25° C./60% relative humidity, 4-week
[7] = 40° C./75% relative humidity (closed), 4-week
[8] = 40° C./75% relative humidity (open), 4-week
[9] = High intensity light (HIL), 4-week
[10] = solid state stress conditions tested

dissolution rate compared with Compound 1 MSA Salt Form 1 ([2]; Example 15, FaSSIF, statistically significant difference): slightly faster
AUC (Mean) ([2]; FaSSIF (pH 6.5)): 14315.281 µg·min/mL
Dissolution Rate (Mean) ([2]; FaSSIF (pH 6.5)): 4.449 µg/mL/min
AUC (Mean) ([2]; FeSSIF (pH 5)): 50014.687 µg·min/mL
Dissolution Rate (Mean) ([2]; FeSSIF (pH 5)): 47.996 µg/mL/min
Peak Solubility (Mean) ([2]; pH 5): 287.395 µg/mL
Peak Solubility (Mean) ([2]; pH 6.5): 91.325 µg/mL
Structure (SMILES): CS(=O)(=O)O.C[C@@H](C(=O)Nc1ccc(Cl)cc1)[C@H]1CC[C@@H](c2ccnc3ccc(F)cc32)CC1.O [Compound 1 MSA salt monohydrate Form 2, (R)-N-(4-chlorophenyl)-2-((1S,4S)-4-(6-fluoroquinolin-4-yl)cyclohexyl)propanamide methanesulfonic acid salt monohydrate]
form change ([1]; stressing at 75% relative humidity at 40 C for 6 days): converts to Compound 1 MSA Salt Form 1 and Compound 1 MSA Salt monohydrate form 2

Area % ([3]; 25° C./60% relative humidity, 2-week): 99.78% Area %
Area % [3, 6]: 99.77% Area %
Area % ([3]; 40° C./75% relative humidity (closed), 2-week): 99.78% Area %
Area % [3, 7]: 99.71 Area %
Area % ([3]; 40° C./75% relative humidity (open), 2-week): 99.79% Area %
Area % [3, 8]: 98.46% Area %
Area % ([3]; 50° C., 2-week): 99.68% Area %
Area % ([3]; 50° C., 4-week): 99.74% Area %
Area % ([3]; High intensity light (HIL), 2-week): 99.77% Area %
Area % [3, 9]: 99.58% Area %
Area % ([3]; RT/RL (room temperature/room light), 2-week): 99.75% Area %
Area % ([3]; RT/RL (room temperature/room light), 4-week): 99.70% Area %
time chemically stable [3, 10]: at least 4 weeks
time for which no changes were observed [3, 10]: at least 2 weeks
Structure (SMILES): C[C@@H](C(=O)Nc1ccc(Cl)cc1)[C@H]1CC[C@@H](c2ccnc3ccc(F)cc32)CC1 [Compound 1 free base Form 4, (R)-N-(4-chlorophenyl)-2-((1S,4S)-4-(6-fluoroquinolin-4-yl)cyclohexyl)propanamide]
form change ([1]; melt/quench experiment, XRPD showed no evidence of crystalline material): resulted in a glass with a few fine, birefringent acicular particles

form change ([1]; heat stressing at 60° C. after 9 days): converted to Compound 1 MSA Salt Form 1
Structure (SMILES): CS(=O)(=O)O.C[C@@H](C(=O)Nc1ccc(Cl)cc1)[C@H]1CC[C@@H](c2ccnc3ccc(F)cc32)CC1 [Amorphous Compound 1 MSA, (R)-N-(4-chlorophenyl)-2-((1S,4S)-4-(6-fluoroquinolin-4-yl)cyclohexyl)propanamide methanesulfonate]
form change ([1]; heat stressing at 60° C. (Example 8A)): recrystallized to Compound 1 MSA Salt Form 1

form change on heating ([1]; heated for ˜2 hours): no form change by XRPD
behaviour on heating ([1]; heating to ˜125° C.): liquefy
form change on dehydration ([1]; overnight hold at 0% RH): converted to an unstable form
time chemically stable [4]: at least 13.5 weeks
Area % [4, 6]: 99.90% Area %
Area % ([4]; 25° C./60% relative humidity, 8-week): 99.90% Area %
Area % ([4]; 25° C./60% relative humidity, 13.5 week): 99.73% Area %
Area % [4, 7]: 99.90% Area %
Area % ([4]; 40° C./75% relative humidity (closed), 8-week): 99.90% Area %
Area % ([4]; 40° C./75% relative humidity (closed), 13.5 week): 99.62% Area %
Area % [4, 8]: 99.90% Area %
Area % ([4]; 40° C./75% relative humidity (open), 8-week): 99.90% Area %
Area % ([4]; 40° C./75% relative humidity (open), 13.5 week): 99.63% Area %
Area % ([4]; 50° C., 4-week): 99.90% Area %
Area % ([4]; 50° C., 8-week): 99.04% Area %
Area % ([4]; 50° C., 13.5 week): 99.79% Area %
Area % [4, 9]: 99.1% Area %
Area % ([4]; RT/RL (room temperature, room light), 4-week): 99.90% Area %
Area % ([4]; RT/RL (room temperature, room light), 8-week): 99.90% Area %
Area % ([4]; RT/RL (room temperature, room light), 13.5 week): 99.78% Area %
evidence of form change, dehydration, or amorphous formation ([4]; after 8 weeks): no evidence
changes in PXRD ([4]; at 4 weeks or 8 weeks in all samples): No changes
change in TGA ([4]; at 8 weeks in all samples): no change
rate of dissolution ([2]; Example 16, FeSSIF): 23 µg/mL/min
Structure (SMILES): C[C@@H](C(=O)Nc1ccc(Cl)cc1)C1CCC(c2ccnc3ccc(F)cc23)CC1.O (stereo partly drawn) [Compound 1 Free Base monohydrate Form 2, (R)-N-(4-chlorophenyl)-2-((1S,4S)-4-(6-fluoroquinolin-4-yl)cyclohexyl)propanamide monohydrate]
form change on heating ([1]; ˜79 to 80° C. for 1 day or ˜75° C. under nitrogen gas flow for ˜20 hours): partial conversion to other crystalline forms

form change on heating ([1]; heated between 67° C. and 150° C.): No crystallization was observed
Structure (SMILES): C[C@@H](C(=O)Nc1ccc(Cl)cc1)[C@H]1CC[C@@H](c2ccnc3ccc(F)cc32)CC1 [Compound 1 Free Base Amorphous, (R)-N-(4-chlorophenyl)-2-((1S,4S)-4-(6-fluoroquinolin-4-yl)cyclohexyl)propanamide]

solubility at 24 h [5]: 1 to 2 µg/mL
Structure (SMILES): C[C@@H](C(=O)Nc1ccc(Cl)cc1)[C@H]1CC[C@@H](c2ccnc3ccc(F)cc32)CC1 [Compound 1, (R)-N-(4-chlorophenyl)-2-((1S,4S)-4-(6-fluoroquinolin-4-yl)cyclohexyl)propanamide]

Source: patent US11236049B2, “Amorphous and crystalline forms of IDO inhibitors” (BRISTOL-MYERS SQUIBB COMPANY, priority 2017, dated 2022)
